According to ChEMBL document CHEMBL1909046, “DrugMatrix in vitro pharmacology data”:

Columns and labels:
[1] = DRUGMATRIX: ATPase, Na+/K+ enzyme inhibition (substrate: ATP); type: tissue-based, Sus scrofa, Heart; conditions: Not Active = under 50% inhibition at 10 µM
[2] = target: T1, C-C chemokine receptor type 4 (Homo sapiens, UniProt P51679); type: cell membranes, Chem-1, Membrane; further: in other assays of this panel Not Active means under 50% inhibition at 10 µM
T1 sequence (P51679 whole entry): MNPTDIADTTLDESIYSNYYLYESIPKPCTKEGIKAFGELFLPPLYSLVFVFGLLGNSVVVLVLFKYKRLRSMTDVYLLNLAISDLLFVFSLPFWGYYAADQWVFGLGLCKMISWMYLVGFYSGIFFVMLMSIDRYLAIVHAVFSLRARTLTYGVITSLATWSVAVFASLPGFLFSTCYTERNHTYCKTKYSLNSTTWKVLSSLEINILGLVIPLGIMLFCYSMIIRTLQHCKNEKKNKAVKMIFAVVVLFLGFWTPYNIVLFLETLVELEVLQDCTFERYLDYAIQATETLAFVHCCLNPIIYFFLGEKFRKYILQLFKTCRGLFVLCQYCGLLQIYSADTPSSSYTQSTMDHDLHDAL

[3] = target: T2, C-X-C chemokine receptor type 1 (Homo sapiens, UniProt P25024); further: in other assays of this panel Not Active means under 50% inhibition at 10 µM
T2 sequence (P25024 whole entry): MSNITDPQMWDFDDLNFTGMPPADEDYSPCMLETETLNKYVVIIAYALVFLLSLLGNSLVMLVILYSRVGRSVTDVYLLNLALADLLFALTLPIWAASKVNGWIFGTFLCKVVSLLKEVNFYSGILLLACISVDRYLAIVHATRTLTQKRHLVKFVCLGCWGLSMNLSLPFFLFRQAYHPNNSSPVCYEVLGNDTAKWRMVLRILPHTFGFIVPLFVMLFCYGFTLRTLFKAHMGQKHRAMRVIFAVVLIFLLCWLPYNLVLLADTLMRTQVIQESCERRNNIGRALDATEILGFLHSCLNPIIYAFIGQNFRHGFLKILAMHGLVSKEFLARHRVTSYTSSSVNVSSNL

[4] = DRUGMATRIX: GABAA, Flunitrazepam, Central radioligand binding (ligand: [3H] Flunitrazepam); type: cell membranes, Rattus norvegicus, Wistar, Brain, Membrane; conditions: Not Active = under 50% inhibition at 10 µM
[5] = target: T3, 5-hydroxytryptamine receptor 1A (Rattus norvegicus, UniProt P19327); type: cell membranes, CHO-K1, Membrane; further: in other assays of this panel Not Active means under 50% inhibition at 10 µM
T3 sequence (P19327 whole entry): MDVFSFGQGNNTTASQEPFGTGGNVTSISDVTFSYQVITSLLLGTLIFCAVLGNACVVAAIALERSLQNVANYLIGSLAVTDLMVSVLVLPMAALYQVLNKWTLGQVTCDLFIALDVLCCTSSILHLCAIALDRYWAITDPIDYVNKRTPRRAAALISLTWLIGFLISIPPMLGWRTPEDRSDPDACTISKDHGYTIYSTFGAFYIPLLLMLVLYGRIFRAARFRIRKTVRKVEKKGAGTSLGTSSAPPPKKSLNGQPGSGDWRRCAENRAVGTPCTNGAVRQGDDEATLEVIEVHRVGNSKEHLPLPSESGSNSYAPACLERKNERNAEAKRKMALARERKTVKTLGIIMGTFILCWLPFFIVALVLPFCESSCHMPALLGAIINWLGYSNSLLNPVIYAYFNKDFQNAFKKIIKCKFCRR

Row | Molecule | IC50 [1] | Ki [1] | IC50 ([2]; chem-1) | IC50 [3] | IC50 [4] | Ki [4] | IC50 ([5]; cho-k1) | IC50 ([2]; read-out: IC50) [nM] | Ki ([2]; read-out: Ki) [nM] | IC50 ([1]; read-out: IC50) [nM] | Ki ([2]; chem-1) | Ki [3] | Ki ([5]; cho-k1) | IC50 ([5]; read-out: IC50) [nM] | Ki ([5]; read-out: Ki) [nM]
1 | CCOc1cc(N)c(Cl)cc1C(=O)NCC1CN(Cc2ccc(F)cc2)CCO1 (configuration not stated) [MOSAPRIDE] | Not Active | Not Active | Not Active | Not Active | Not Active | Not Active | Not Active |  |  |  |  |  |  |  | 
2 | O=C(c1ccccc1)c1ccc2n1CCC2C(=O)O (configuration not stated) [KETOROLAC] | Not Active | Not Active | Not Active | Not Active | Not Active | Not Active | Not Active |  |  |  |  |  |  |  | 
3 | Nc1nc(N)c2nc(-c3ccccc3)c(N)nc2n1 | Not Active | Not Active | Not Active | Not Active | Not Active | Not Active | Not Active |  |  |  |  |  |  |  | 
4 | Oc1ccc(/C=C/c2cc(O)cc(O)c2)cc1 [RESVERATROL] | Not Active | Not Active | Not Active | Not Active | Not Active | Not Active | Not Active |  |  |  |  |  |  |  | 
5 | Cc1ccnc(NS(=O)(=O)c2ccc(N)cc2)n1 [SULFAMERAZINE] | Not Active | Not Active | Not Active | Not Active | Not Active | Not Active | Not Active |  |  |  |  |  |  |  | 
6 | CCN1CCCC1CNC(=O)c1cc(S(N)(=O)=O)ccc1OC (configuration not stated) [SULPIRIDE] | Not Active | Not Active | Not Active | Not Active | Not Active | Not Active | Not Active |  |  |  |  |  |  |  | 
7 | O=C1CC[C@@]2(O)[C@H]3Cc4ccc(O)c5c4[C@@]2(CCN3CC2CC2)[C@H]1O5 [NALTREXONE] | Not Active | Not Active | Not Active | Not Active | Not Active | Not Active | Not Active |  |  |  |  |  |  |  | 
8 | CCN(CC)C(=S)SSC(=S)N(CC)CC | Not Active | Not Active |  | Not Active | Not Active | Not Active | Not Active | 8400 | 4400 |  |  |  |  |  | 
9 | O=C(OC[C@H]1O[C@@H](OC(=O)c2cc(O)c(O)c(OC(=O)c3cc(O)c(O)c(O)c3)c2)[C@H](OC(=O)c2cc(O)c(O)c(OC(=O)c3cc(O)c(O)c(O)c3)c2)[C@@H](OC(=O)c2cc(O)c(O)c(OC(=O)c3cc(O)c(O)c(O)c3)c2)[C@@H]1OC(=O)c1cc(O)c(O)c(OC(=O)c2cc(O)c(O)c(O)c2)c1)c1cc(O)c(O)c(OC(=O)c2cc(O)c(O)c(O)c2)c1 [TANNIC ACID] |  |  | Not Active | Not Active | Not Active | Not Active | Not Active |  |  | 1340 |  |  |  |  | 
10 | C=CCc1ccc2c(c1)OCO2 [SAFROLE] | Not Active | Not Active | Not Active | Not Active | Not Active | Not Active | Not Active |  |  |  |  |  |  |  | 
11 | C#C[C@]1(O)CC[C@H]2[C@@H]3[C@H](C)CC4=C(CCC(=O)C4)[C@H]3CC[C@@]21C [TIBOLONE] | Not Active | Not Active | Not Active | Not Active | Not Active | Not Active | Not Active |  |  |  |  |  |  |  | 
12 | CC[C@@]1(O)C(=O)OCc2c1cc1n(c2=O)Cc2cc3c(CN(C)C)c(O)ccc3nc2-1 [TOPOTECAN] | Not Active | Not Active | Not Active | Not Active | Not Active | Not Active | Not Active |  |  |  |  |  |  |  | 
13 | CC1(C)[C@H](C(=O)O)N2C(=O)C[C@H]2S1(=O)=O [SULBACTAM] | Not Active | Not Active | Not Active | Not Active | Not Active | Not Active | Not Active |  |  |  |  |  |  |  | 
14 | CCN(CC)N=O [N-NITROSODIETHYLAMINE] | Not Active | Not Active | Not Active | Not Active | Not Active | Not Active | Not Active |  |  |  |  |  |  |  | 
15 | C[C@]12CCC(=O)C[C@@H]1CC[C@@H]1[C@@H]2CC[C@]2(C)[C@@H](O)CC[C@@H]12 [STANOLONE] | Not Active | Not Active | Not Active | Not Active | Not Active | Not Active | Not Active |  |  |  |  |  |  |  | 
16 | Cc1cccc(C)c1NC(=O)C(C)N (configuration not stated) [TOCAINIDE] | Not Active | Not Active | Not Active | Not Active | Not Active | Not Active | Not Active |  |  |  |  |  |  |  | 
17 | LEAD(IV) ACETATE | Not Active | Not Active | Not Active | Not Active | Not Active | Not Active | Not Active |  |  |  | Not Active | Not Active | Not Active |  | 
18 | CC#C[C@]1(O)CC[C@H]2[C@@H]3CCC4=CC(=O)CCC4=C3[C@@H](c3ccc(N(C)C)cc3)C[C@@]21C [MIFEPRISTONE] | Not Active | Not Active | Not Active | Not Active | Not Active | Not Active | Not Active |  |  |  |  |  |  |  | 
19 | CS(=O)(=O)c1ccc(C2=C(c3ccccc3)C(=O)OC2)cc1 [ROFECOXIB] | Not Active | Not Active | Not Active | Not Active | Not Active | Not Active | Not Active |  |  |  |  |  |  |  | 
20 | COC(=O)Nc1nc2ccc(C(=O)c3ccccc3)cc2[nH]1 [MEBENDAZOLE] | Not Active | Not Active | Not Active | Not Active | Not Active | Not Active | Not Active |  |  |  |  |  |  |  | 
21 | CC(O)C(=O)O (configuration not stated) [LACTIC ACID] | Not Active | Not Active | Not Active | Not Active | Not Active | Not Active | Not Active |  |  |  |  |  |  |  | 
22 | CC(N)C12CC3CC(CC(C3)C1)C2 (configuration not stated) [RIMANTADINE] | Not Active | Not Active | Not Active | Not Active | Not Active | Not Active | Not Active |  |  |  |  |  |  |  | 
23 | CN1C[C@H](CNC(=O)OCc2ccccc2)C[C@@H]2c3cccc4c3c(cn4C)C[C@H]21 [METERGOLINE] | Not Active | Not Active | Not Active | Not Active | Not Active | Not Active |  |  |  |  |  |  |  | 6.17 | 3.53
24 | CO[C@@H]1[C@@H](OC)[C@H](C)[C@@](O)(CC(=O)O)O[C@H]1[C@H](C)[C@H]1O[C@@]2(CC[C@@](C)([C@H]3CC[C@@](C)([C@@H]4O[C@@H]([C@H]5O[C@](C)(O)[C@H](C)C[C@@H]5C)C[C@@H]4O[C@@H]4C[C@H](OC)[C@@H](OC)[C@H](C)O4)O3)O2)C[C@H](O)[C@H]1C.N [MADURAMICIN] | Not Active | Not Active | Not Active | Not Active | Not Active | Not Active | Not Active |  |  |  |  |  |  |  | 
25 | CCOC(=O)C1=C(C)NC(C)=C(C(=O)OCC)C1c1ccccc1/C=C/C(=O)OC(C)(C)C [LACIDIPINE] | Not Active | Not Active | Not Active | Not Active | Not Active | Not Active | Not Active |  |  |  |  |  |  |  | 
26 | CC(C)(C)NC[C@H](O)COc1cccc2c1CCCC2=O [LEVOBUNOLOL] | Not Active | Not Active | Not Active | Not Active | Not Active | Not Active |  |  |  |  |  |  |  | 2900 | 1660
27 | Cc1[nH]c(=O)c(C#N)cc1-c1ccncc1 [MILRINONE] | Not Active | Not Active | Not Active | Not Active | Not Active | Not Active | Not Active |  |  |  |  |  |  |  | 
28 | Cc1cc2c(s1)Nc1ccccc1N=C2N1CCN(C)CC1 [OLANZAPINE] |  |  | Not Active | Not Active |  |  | Not Active |  |  |  |  |  |  |  | 
29 | CNCCCC12CCC(c3ccccc31)c1ccccc12 [MAPROTILINE] |  |  | Not Active | Not Active |  |  | Not Active |  |  |  |  |  |  |  | 
30 | CN(C)CCC=C1c2ccccc2COc2ccccc21 [DOXEPIN] |  |  | Not Active | Not Active |  |  |  |  |  |  |  |  |  |  | 
